# According to US8796256B2 (Janssen Pharmaceutica NV, priority 2010, dated 2014):
# Target: T1, ERR1 (also known as ERR-α or ERR-1) (Homo sapiens, UniProt P11474)
# T1 sequence (P11474 193-421 limits assumed): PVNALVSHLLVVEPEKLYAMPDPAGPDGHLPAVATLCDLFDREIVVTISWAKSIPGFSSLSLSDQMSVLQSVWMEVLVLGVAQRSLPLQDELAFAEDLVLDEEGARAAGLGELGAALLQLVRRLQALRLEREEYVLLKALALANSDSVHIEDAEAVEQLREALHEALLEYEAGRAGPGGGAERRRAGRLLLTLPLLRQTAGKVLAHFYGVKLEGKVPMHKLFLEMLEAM
# Test: TR-FRET assay (disruption of co-activator peptide binding to ERR1 LBD)
# Type: biochemical
# Settings: 6 nM 6His-ERR1LBD, 6 nM GST-SRC-2 peptide; average of 3 independent experiments
# In short: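 Homogeneous TR-FRET measuring displacement of GST-hSRC2 co-activator peptide (6 nM) from His-tagged ERR1 LBD (6 nM), detected with α-GST Eu cryptate (30 nM) and α-His-XL665 (7.5 nM). Buffer 25 mM Tris pH 8, 2.5 mM Hepes, 20 mM KCl, 1 mM DTT, 0.05 mg/mL delipidated BSA; equilibration 4-18 h at 25° C. Hyperbolic dose-response fit, mean of 3 experiments.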
row,SMILES,EC50
1,"O=C1CCNCC1N1C(=O)S/C(=C\c2ccc3c(cnn3Cc3ccc(Cl)cc3C(F)(F)F)c2)C1=O (stereo not drawn) [Compound 343, (5Z)-5-({1-[4-Chloro-2-(trifluoromethyl)benzyl]-1H-indazol-5-yl}methylidene)-3-(4-oxopiperidin-3-yl)-1,3-thiazolidine-2,4-dione]",27 nM
2,"CN1CCC(=O)C(N2C(=O)S/C(=C\c3ccc4c(cnn4Cc4ccc(Cl)cc4C(F)(F)F)c3)C2=O)C1 (stereo not drawn) [Compound 344, (5Z)-5-({1-[4-Chloro-2-(trifluoromethyl)benzyl]-1H-indazol-5-yl}methylidene)-3-(1-methyl-4-oxopiperidin-3-yl)-1,3-thiazolidine-2,4-dione]",40 nM
3,"O=C1S/C(=C\c2ccc3c(cnn3Cc3ccc(Cl)cc3C(F)(F)F)c2)C(=O)N1C1CCNCC1(F)F (stereo not drawn) [Compound 345, (5Z)-5-({1-[4-Chloro-2-(trifluoromethyl)benzyl]-1H-indazol-5-yl}methylidene)-3-(3,3-difluoropiperidin-4-yl)-1,3-thiazolidine-2,4-dione]",18 nM
4,"N#Cc1ccc(Cn2ncc3cc(/C=C4\SC(=O)N(CC(=O)O)C4=O)ccc32)c(C(F)(F)F)c1 [Compound 346, [(5Z)-5-({1-[4-Cyano-2-(trifluoromethyl)benzyl]-1H-indazol-5-yl}methylidene)-2,4-dioxo-1,3-thiazolidin-3-yl]acetic acid]",579 nM
5,"O=C(O)CN1C(=O)S/C(=C\c2ccc3c(cnn3Cc3ccc(Cl)cc3C(F)(F)F)c2F)C1=O [Compound 347, [(5Z)-5-({1-[4-Chloro-2-(trifluoromethyl)benzyl]-4-fluoro-1H-indazol-5-yl}methylidene)-2,4-dioxo-1,3-thiazolidin-3-yl]acetic acid]",116 nM
6,"O=C(O)CN1C(=O)S/C(=C\c2cc3cnn(Cc4ccc(Cl)cc4C(F)(F)F)c3cc2F)C1=O [Compound 348, [(5Z)-5-({1-[4-Chloro-2-(trifluoromethyl)benzyl]-6-fluoro-1H-indazol-5-yl}methylidene)-2,4-dioxo-1,3-thiazolidin-3-yl]acetic acid]",7 nM
7,"CN1CCN(N2C(=O)S/C(=C\c3ccc4c(cnn4Cc4ccc(Cl)cc4C(F)(F)F)c3)C2=O)CC1 [Compound 349, (5Z)-5-({1-[4-Chloro-2-(trifluoromethyl)benzyl]-1H-indazol-5-yl}methylidene)-3-(4-methylpiperazin-1-yl)-1,3-thiazolidine-2,4-dione]",24 nM
8,"CN1CCN(N2C(=O)S/C(=C\c3ccc4c(cnn4Cc4ccc(C(F)(F)F)cc4C(F)(F)F)c3)C2=O)CC1 [Compound 350, (5Z)-5-({1-[2,4-Bis(trifluoromethyl)benzyl]-1H-indazol-5-yl}methylidene)-3-(4-methylpiperazin-1-yl)-1,3-thiazolidine-2,4-dione]",38 nM
9,"O=C1S/C(=C\c2ccc3c(cnn3Cc3ccc(Cl)cc3C(F)(F)F)c2)C(=O)N1N1CCNCC1 [Compound 351, (5Z)-5-({1-[4-Chloro-2-(trifluoromethyl)benzyl]-1H-indazol-5-yl}methylidene)-3-piperazin-1-yl-1,3-thiazolidine-2,4-dione]",22 nM
10,"COCCN1CCN(N2C(=O)S/C(=C\c3ccc4c(cnn4Cc4ccc(Cl)cc4C(F)(F)F)c3)C2=O)CC1 [Compound 352, (5Z)-5-({1-[4-Chloro-2-(trifluoromethyl)benzyl]-1H-indazol-5-yl}methylidene)-3-[4-(2-methoxyethyl)piperazin-1-yl]-1,3-thiazolidine-2,4-dione]",25 nM
11,"NC(=O)CN1CCN(N2C(=O)S/C(=C\c3ccc4c(cnn4Cc4ccc(Cl)cc4C(F)(F)F)c3)C2=O)CC1 [Compound 353, 2-{4-[(5Z)-5-({1-[4-Chloro-2-(trifluoromethyl)benzyl]-1H-indazol-5-yl}methylidene)-2,4-dioxo-1,3-thiazolidin-3-yl]piperazin-1-yl}acetamide]",11 nM
12,"O=C1S/C(=C\c2ccc3c(cnn3Cc3ccc(Cl)cc3C(F)(F)F)c2)C(=O)N1N1CCN(CCO)CC1 [Compound 354, (5Z)-5-({1-[4-Chloro-2-(trifluoromethyl)benzyl]-1H-indazol-5-yl}methylidene)-3-[4-(2-hydroxyethyl)piperazin-1-yl]-1,3-thiazolidine-2,4-dione]",17 nM
13,"NN1C(=O)S/C(=C\c2ccc3c(cnn3Cc3ccc(Cl)cc3C(F)(F)F)c2)C1=O [Compound 355, (5Z)-3-Amino-5-({1-[4-chloro-2-(trifluoromethyl)benzyl]-1H-indazol-5-yl}methylidene)-1,3-thiazolidine-2,4-dione]",20 nM
14,"CC(=O)NN1C(=O)S/C(=C\c2ccc3c(cnn3Cc3ccc(Cl)cc3C(F)(F)F)c2)C1=O [Compound 356, N-[(5Z)-5-({1-[4-Chloro-2-(trifluoromethyl)benzyl]-1H-indazol-5-yl}methylidene)-2,4-dioxo-1,3-thiazolidin-3-yl]acetamide]",14 nM
15,"CNN1C(=O)S/C(=C\c2ccc3c(cnn3Cc3ccc(C(F)(F)F)cc3C(F)(F)F)c2)C1=O [Compound 357, (5Z)-5-({1-[2,4-Bis(trifluoromethyl)benzyl]-1H-indazol-5-yl}methylidene)-3-(methylamino)-1,3-thiazolidine-2,4-dione]",39 nM
16,"CNN1C(=O)S/C(=C\c2ccc3c(cnn3Cc3ccc(Cl)cc3C(F)(F)F)c2)C1=O [Compound 358, (5Z)-5-({1-[4-Chloro-2-(trifluoromethyl)benzyl]-1H-indazol-5-yl}methylidene)-3-(methylamino)-1,3-thiazolidine-2,4-dione]",22 nM
17,"O=C1S/C(=C\c2ccc3c(cnn3Cc3ccc(Cl)cc3C(F)(F)F)c2)C(=O)N1N1CCOCC1 [Compound 359, (5Z)-5-({1-[4-Chloro-2-(trifluoromethyl)benzyl]-1H-indazol-5-yl}methylidene)-3-morpholin-4-yl-1,3-thiazolidine-2,4-dione]",26 nM
18,"CS(=O)(=O)NN1C(=O)S/C(=C\c2ccc3c(cnn3Cc3ccc(C(F)(F)F)cc3C(F)(F)F)c2)C1=O [Compound 360, N-[(5Z)-5-({1-[2,4-Bis(trifluoromethyl)benzyl]-1H-indazol-5-yl}methylidene)-2,4-dioxo-1,3-thiazolidin-3-yl]methanesulfonamide]",26 nM
19,"CS(=O)(=O)NN1C(=O)S/C(=C\c2ccc3c(cnn3Cc3ccc(C#N)cc3C(F)(F)F)c2)C1=O [Compound 362, N-[(5Z)-5-({1-[4-Cyano-2-(trifluoromethyl)benzyl]-1H-indazol-5-yl}methylidene)-2,4-dioxo-1,3-thiazolidin-3-yl]methanesulfonamide]",308 nM
20,"CS(=O)(=O)NN1C(=O)S/C(=C\c2ccc3c(cnn3Cc3ccc(F)cc3C(F)(F)F)c2)C1=O [Compound 363, N-[(5Z)-5-({1-[4-Fluoro-2-(trifluoromethyl)benzyl]-1H-indazol-5-yl}methylidene)-2,4-dioxo-1,3-thiazolidin-3-yl]methanesulfonamide]",59 nM
21,"CS(=O)(=O)NN1C(=O)S/C(=C\c2ccc3c(cnn3Cc3ccc(Br)cc3C(F)(F)F)c2)C1=O [Compound 364, N-[(5Z)-5-({1-[4-Bromo-2-(trifluoromethyl)benzyl]-1H-indazol-5-yl}methylidene)-2,4-dioxo-1,3-thiazolidin-3-yl]methanesulfonamide]",4 nM
22,"Cc1nn(Cc2ccc(Cl)cc2C(F)(F)F)c2ccc(/C=C3\SC(=O)N(NS(C)(=O)=O)C3=O)cc12 [Compound 365, N-[(5Z)-5-({1-[4-Chloro-2-(trifluoromethyl)benzyl]-3-methyl-1H-indazol-5-yl}methylidene)-2,4-dioxo-1,3-thiazolidin-3-yl]methanesulfonamide]",23 nM
23,"CS(=O)(=O)NN1C(=O)S/C(=C\c2ccc3c(c2)c(Cl)nn3Cc2ccc(Cl)cc2C(F)(F)F)C1=O [Compound 366, N-[(5Z)-5-({3-Chloro-1-[4-chloro-2-(trifluoromethyl)benzyl]-1H-indazol-5-yl}methylidene)-2,4-dioxo-1,3-thiazolidin-3-yl]methanesulfonamide]",6 nM
24,"CS(=O)(=O)NN1C(=O)S/C(=C\c2ccc3c(c2)c(I)nn3Cc2ccc(Cl)cc2C(F)(F)F)C1=O [Compound 367, N-[(5Z)-5-({1-[4-Chloro-2-(trifluoromethyl)benzyl]-3-iodo-1H-indazol-5-yl}methylidene)-2,4-dioxo-1,3-thiazolidin-3-yl]methanesulfonamide]",4 nM
25,"CS(=O)(=O)NN1C(=O)S/C(=C\c2ccc3c(c2)c(F)nn3Cc2ccc(Cl)cc2C(F)(F)F)C1=O [Compound 368, N-[(5Z)-5-({1-[4-Chloro-2-(trifluoromethyl)benzyl]-3-fluoro-1H-indazol-5-yl}methylidene)-2,4-dioxo-1,3-thiazolidin-3-yl]methanesulfonamide]",3 nM
26,"CS(=O)(=O)NN1C(=O)S/C(=C\c2ccc3c(c2)c(C#N)nn3Cc2ccc(C(F)(F)F)cc2C(F)(F)F)C1=O [Compound 369, N-[(5Z)-5-({1-[2,4-Bis(trifluoromethyl)benzyl]-3-cyano-1H-indazol-5-yl}methylidene)-2,4-dioxo-1,3-thiazolidin-3-yl]methanesulfonamide]",64 nM
27,"CS(=O)(=O)NN1C(=O)S/C(=C\c2ccc3c(cnn3Cc3ccc(Cl)cc3C(F)(F)F)c2F)C1=O [Compound 370, N-[(5Z)-5-({1-[4-Chloro-2-(trifluoromethyl)benzyl]-4-fluoro-1H-indazol-5-yl}methylidene)-2,4-dioxo-1,3-thiazolidin-3-yl]methanesulfonamide]",48 nM
